According to publication PMC2364987 (Metal-Based Drugs, 1995):

Tests used:
human CA I = biological target: T1, human CA I (Homo sapiens, UniProt P00915); experiment: CA I inhibition, CO2 hydration, Maren's micromethod (E-I technique); assay type: biochemical; details: 0C, veronal buffer, calculated as for the monomer for complexes
T1 construct: purchased Sigma Chemical Co
Excerpt: (§1) Introduction Sulfonamide inhibitors of the zinc enzyme carbonic anhydrase (CA, EC 4.2.1.1) are widely used pharmacological agents in the treatment of a variety of disorders. […] 3,11 As we are also interested in exploring the coordination chemistry of sulfonamide CA inhibitors, in addition to their pharmacological applications, 1,4,11 a study is reported here on the preparation and characterization of metal complexes containing 4 and divalent metal ions such as Co(II), Ni(II), Cu(II), Zn(II), and Cd(II). In fact 4 is the first disulfonamide for which such a study was done. Here we report the data on these new derivatives, as well as their inhibition properties against two isozymes, CA I and CA II. Mention should be made that CA I inhibition data for the parent ligand, 1,3,4-thiadiazole-2,5- disulfonamide are published here for the first time. Materials and Methods Melting points were recorded on a heating plate microscope and are not corrected. FTIR spectra were obtained on thin films of pure compound, with a Perkin Elmer 1600 instrument, in the range 200 4000 cm"1. Electronic spectra were obtained by the diffuse reflectance technique in MgO as reference, with a Perkin Elmer Lambda 17 apparatus. Conductimetric measurements were done in DMF solutions, at 25C (concentrations of 1 mM of complex) with a Fisher conductimeter. 1n- and 13C-NMR data were obtained in DMSO-d as solvent with a Varian Gemmini 300 spectrometer. Chemical shifts are expressed as values relative to tetramethylsilane as internal standard. […] Thermogravimetric measurements were done in air, at a heating rate of 10C/min., with a Perkin Elmer 3600 thermobalance. Sulfonamide 4 used in the syntheses was prepared as described earlier by us.11 Metal salts, organic reagents used for preparing the ligand 4 and solvents were from Aldrich and were used without additional purification. Bovine CA II and human CA I was from Sigma Chemical Co. Inhibitors were assayed by […] micromethod 12, in the conditions of the E-I (enzyme-inhibitor) technique, at 0C in veronal buffer. IC0 values represent the molarity of inhibitor producing a 50% decrease of CA specific activity for the CO2 hydration reaction. […] The precipitated complexes were filtered and air dried. […] According to our method 6a the coordination compounds of sulfonamides were prepared starting from the sodium salt of the ligand, in aqueous milieu, whereas according to Borras' group they were obtained in the presence of ammonia (or other amines, such as pyridine, ethylenediamine, imidazole, etc), in alcohol as solvent.14 In such cases, the amines are also coordinated to the metal ions, in addition to the sulfonamide ligands. In the present study, we prepared and characterized both types ofderivatives, working with the sodium salt of4, but also with the ligand in the presence of ammonia, in both cases in a 1:1 molar ratio ligand:metal salt. […] Table I: Complexes 5-14 prepared and their elemental analysis data (S stands for the doubly deprotonated species of sulfonamide 4). […] Table II: Spectroscopic, magnetic and conductimetric data for complexes 5-10 as compared to ligands 4. Comp. IR.

Bovine CA II = biological target: T2, Bovine CA II (Bos taurus, UniProt P00921); experiment: CA II inhibition, CO2 hydration, Maren's micromethod (E-I technique); assay type: biochemical; details: 0C, veronal buffer, calculated as for the monomer for complexes
T2 construct: purchased Sigma Chemical Co
T2 sequence (P00921 whole entry): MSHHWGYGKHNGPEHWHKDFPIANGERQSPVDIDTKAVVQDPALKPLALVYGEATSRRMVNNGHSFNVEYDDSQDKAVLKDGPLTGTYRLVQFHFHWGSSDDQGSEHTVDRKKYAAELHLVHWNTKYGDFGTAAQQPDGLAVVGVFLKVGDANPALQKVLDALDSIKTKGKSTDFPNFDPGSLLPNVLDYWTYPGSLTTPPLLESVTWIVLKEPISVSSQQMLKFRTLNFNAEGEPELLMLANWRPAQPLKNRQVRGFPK
Excerpt: as §1

T1 sequence (P00915 whole entry): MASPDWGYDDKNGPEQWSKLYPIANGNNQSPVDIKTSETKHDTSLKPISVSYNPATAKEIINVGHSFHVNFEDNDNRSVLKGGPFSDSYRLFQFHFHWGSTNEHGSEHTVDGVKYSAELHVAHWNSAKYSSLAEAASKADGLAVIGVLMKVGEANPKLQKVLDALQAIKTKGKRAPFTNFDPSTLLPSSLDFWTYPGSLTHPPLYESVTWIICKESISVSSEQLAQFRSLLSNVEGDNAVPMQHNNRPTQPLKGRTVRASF

| Substance | IC50 (human CA I) [nM] | IC50 (Bovine CA II) [nM] |
| --- | --- | --- |
| [CdS(NH3)2]o [Compound 14] | 185 | 19 |
| [CdS(OH2)2] [Compound 9] | 180 | 17 |
| [CoS(NH3)2]n [Compound 10] | 360 | 42 |
| [CuS(NH3)2] [Compound 12] | 185 | 27 |
| [CuS(OH2)2]n [Compound 7] | 175 | 24 |
| [NiS(NH3)2], [Compound 11] | 440 | 41 |
| [NiS(OH2)2]n [Compound 6] | 390 | 45 |
| [ZnS(NH3)2] [Compound 13] | 205 | 22 |
| [ZnS] [Compound 8] | 210 | 28 |
